Where two headings read alike, the source gives them in different places. Residues, ends and D or L forms follow the SMILES beside them.
Assays:
[1] = test system: GFP-expressing E. coli strain BL21; test: Live imaging of GFP leakage; assay type: cell-based, Escherichia coli; conditions: 16 μM peptide, 8 h, 37°C, images every 10 min
Experimental: To observe bacterial cell death in the presence of peptide in real time, fluorescence microscopy was employed using GFP-expressing E. coli strain BL21. MIC assays were conducted against BL21-GFP to determine the peptide concentration used for microscopy experiments. The peptide was suspended in PBS and added to diluted bacterial cells. GFP-expressing E. coli in the presence of peptide were imaged on the Eclipse Ti-E inverted microscope (Nikon) using GFP and DIC channels for 8 h at 37°C, with images taken every 10 min ([Fields et al., 2020]). Syn-xiamencin-2, a peptide with no detectable antimicrobial activity below 128 μM was also evaluated as a negative peptide candidate control.

[2] = test system: S. aureus (USA300); assay type: cell-based, Staphylococcus aureus; conditions: for MBC: USA300; for MIC: USA300, 16 h
How it was run: (§1)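 MIC in Mueller-Hinton broth with 1 × 10^6 CFU/mL bacteria, overnight cultures grown first in LB (E. coli, P. aeruginosa, S. aureus) or Todd-Hewitt (S. pyogenes); growth read as OD 600. Library members screened at half the parent peptide MIC; MBC as lowest concentration giving no colonies after plating MIC wells, 37°C overnight.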

[3] = test system: P. aeruginosa (PAO1); assay type: cell-based, Pseudomonas aeruginosa; conditions: for MBC: PAO1; for MIC: PAO1, 16 h
How it was run: as §1

[4] = test system: E. coli (BL21); assay type: cell-based, Escherichia coli
How it was run: as §1

[5] = test system: S. pyogenes (M1); assay type: cell-based, Streptococcus pyogenes; conditions: for MBC: M1
How it was run: as §1

[6] = test system: E. coli strain BL21; test: Propidium iodide uptake by FACS; assay type: cell-based, Escherichia coli; conditions: 2, 4, 8, 16 or 32 μM peptide in saline, 1 h, ambient temperature, 1 × 10^4 events
Experimental: For determination of bacterial cell death via membrane disruption, bacterial cells were subjected to propidium iodide (PI) uptake and quantified using fluorescence-activated cell sorting (FACS). E. coli strain BL21 were first diluted to a OD 600 of 1.0. Cells were washed three times in 0.85% NaCl (saline) solution and resuspended in either 1.5 mL of either saline, 70% isopropyl alcohol, or peptide diluted to either 2, 4, 8, 16 or 32 μM in saline for 1 h at ambient temperature. Following incubation, cells were pelleted and resuspended in 1 mL of saline with 1.5 μL/mL propidium iodide and incubated in the dark for 15 min. The samples were washed again with saline three times and run through a Beckman Coulter FC500 flow cytometer. The FL3 detector, using the propidium iodine PE-Alexa Fluor 610 emission filter, was used to sort the cells. 1 × 10^4 events were collected for each sample run.

[7] = test system: sheep erythrocytes; assay type: cell-based; conditions: red cells of sheep, 1 h
How it was run: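 Washed defibrinated sheep blood, diluted 1:25 in PBS, incubated 1 h at 37 °C with peptide at the MIC-assay concentrations (sample:blood 1:10). Haemoglobin release read as supernatant absorbance at 450 nm; percent haemolysis normalised to PBS and 10% Triton controls.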

[8] = E. coli BL21, running text b43, unit printed nm

Compound: CC[C@H](C)[C@H](NC(=O)[C@H](Cc1c[nH]c2ccccc12)NC(=O)[C@H](C)NC(=O)[C@H](CCCNC(=N)N)NC(=O)[C@H](CCCCN)NC(=O)CNC(=O)[C@H](CCCCN)NC(=O)[C@H](CCC(=O)O)NC(=O)[C@H](CCC(N)=O)NC(=O)[C@@H](NC(=O)[C@H](CCCCN)NC(=O)[C@H](CCCCN)NC(=O)[C@H](CCCCN)NC(=O)[C@H](CC(C)C)NC(=O)[C@H](CCCNC(=N)N)NC(=O)[C@H](CCC(N)=O)NC(=O)[C@H](Cc1ccccc1)NC(=O)[C@@H](NC(=O)[C@@H](NC(=O)[C@H](CCC(=O)O)NC(=O)[C@H](CCCCN)NC(=O)CNC(=O)[C@H](C)N)[C@@H](C)O)[C@@H](C)CC)[C@@H](C)CC)C(=O)N[C@@H](C)C(=O)N[C@@H](Cc1c[nH]c2ccccc12)C(=O)O [Syn-larvacin-27] (H-AGKETIFQRLKKKIQEKGKRAWIAW-OH; N-terminus and C-terminus assumed)
- GFP leakage / change in fluorescence [1]: significant decrease in fluorescence
- MBC [2]: 8 µM
- MIC [2]: 8 µM
- MBC [3]: 64 µM
- MIC [3]: 32 µM
- MIC ([4]; BL21): 0.0156 µM
- MIC ([4]; BL21, 16 h): <0.0156 µM
- MBC [4, 8]: below 15.6 nM
- MIC [4, 8]: below 15.6 nM
- MBC [5]: 0.5 µM
- MIC ([5]; S. pyogenes M1): 0.125 µM
- MIC ([5]; S. pyogenes M1, running text b43, unit printed nm): 0.125 µM
- PI positive cells [6]: higher cell counts of PI-stained cells in a dose-dependent manner

Compound: CC[C@H](C)[C@H](NC(=O)[C@H](CCCCN)NC(=O)[C@H](CCCCN)NC(=O)[C@H](CCCCN)NC(=O)[C@H](CC(C)C)NC(=O)[C@H](CCCNC(=N)N)NC(=O)[C@H](CCC(N)=O)NC(=O)[C@H](Cc1ccccc1)NC(=O)[C@@H](NC(=O)[C@@H](NC(=O)[C@H](CCC(=O)O)NC(=O)[C@H](CCCCN)NC(=O)CNC(=O)[C@H](C)N)[C@@H](C)O)[C@@H](C)CC)C(=O)N[C@@H](CCC(N)=O)C(=O)N[C@@H](CCC(=O)O)C(=O)N[C@@H](CCCCN)C(=O)N[C@@H](Cc1c[nH]c2ccccc12)C(=O)N[C@@H](CCCCN)C(=O)N[C@@H](CCCNC(=N)N)C(=O)N[C@@H](C)C(=O)N[C@H](C(=O)N[C@H](C(=O)N[C@@H](C)C(=O)N[C@@H](Cc1c[nH]c2ccccc12)C(=O)O)[C@@H](C)CC)[C@@H](C)O [Syn-larvacin-43] (H-AGKETIFQRLKKKIQEKWKRATIAW-OH; N-terminus and C-terminus assumed)
- GFP leakage / change in fluorescence [1]: significant decrease in fluorescence
- MBC [2]: 4 µM
- MIC [2]: 4 µM
- MBC [3]: 16 µM
- MIC [3]: 16 µM
- Percent Hemolysis [7]: 19.9%
- MBC ([4]; BL21): 1 µM
- MIC ([4]; BL21, 16 h): 1 µM
- MBC [5]: 4 µM
- MIC ([5]; M1, 16 h): 4 µM
- PI positive cells [6]: higher cell counts of PI-stained cells in a dose-dependent manner
